Structures are written as SMILES. pEC50: −log10 of the molar value. “And” between values parts separate entries of the source, which are not always exact repeats. Equal values may be shown once. “Also recorded” adds a separate entry of the source.

This is an account of results in patent US7081476B2, “Tocopherol enriched compositions for reducing IL6 levels” (Galileo Pharmaceuticals, Inc., priority 2001, dated 2006).

Test [1] relates to inflammation secondary to exposure to arachidonic acid. In words: Arachidonic acid mouse ear inflammation model. In kind it is in vivo. To be noted: topical to left ear, CD-1 mice, one hour after treatment. How it is done: This assay measures the ability of test compounds to prevent or reduce inflammation secondary to oxazolone or arachidonic acid.
A. Arachidonic acid. Albino male CD-1 mice, 7–9 weeks old were used in this test. A 20% (w/v) arachidonic acid solution in acetone is prepared. Twenty microliters of the arachidonic acid solution is applied to the dorsal left ear of the mouse. Immediately thereafter, test compounds (20 μL in 70% ethanol/30% propylene glycol) are applied to the left ear. The untreated right ears served as control. Mice are sacrificed by CO2 inhalation, one hour after treatment. The left and right ears are removed and 7 mm punch biopsies taken from each. The punch biopsies are weighed, and the differences calculated. […] Other non-alpha-tocopherol enriched tocopherol compositions can be tested for their ability to reduce inflammation in this model.

The test system of test [2] is IL-6 present in edematous fluid. The test can be described thus: Carrageenan-induced rat paw edema assay, IL-6 in edematous fluid. Particulars: rats. It is filed as in vivo.
In test [3] the test system is CRP production in human Hep3B cells. In words: Human Hep3B cells CRP assay (IL-1β, IL-6 and dexamethasone stimulated, CRP ELISA). It is filed as cell-based. To be noted: for reducing CRP production/levels (in words): Hep3B cells stimulated with IL-1B, IL-6 and dexamethasone. An excerpt:
A. Human Hep3B Cells—CRP assay. Hep3B Cell Line is obtained from the American Type Culture Collection (ATCC Catalog No. HB-8064). The Hep3B cell line was derived from liver tissue of […]. The cells are epithelial in morphology and produce tumors in nude mice. The cells produce α-fetoprotein, hepatitis B surface antigen, albumin, α-2-macroglobulin, α-1-antitrypsin, transferrin, plasminogen, complement C3 and β-lipoprotein (Knowles B B, et al., Science, 1980, 209:497–499). This cell line has been widely used to study hepatocyte cytokine and acute phase protein release (e.g., Damtew B, et al., 1993, J Immunol 150:4001–4007).
HEP3B cells are grown in Minimum Essential Medium (MEM; GIBCO) supplemented with 10% Fetal Bovine Serum (FBS; Hyclone), 1× Penicillin/Streptomycin (GIBCO, Cat #. 15140-122) and 0.1 mM non-essential amino acids (GIBCO, Catalog No. 11140-050). Cells are thawed and transferred to warm medium according to standard methods known in the art.
Cells are incubated in flasks at 37° C. with 5% CO2 in an air atmosphere incubator. HEP3B growth media is changed every 2 days until the cells reach 70–80% confluence (approx. 3–4 days). For assay, the cells are transferred to 96-well plates, seeded at 5000 cells per well in culture media, and left to grow for 7 days in a 37° C. incubator (air supplemented with 5% CO2). Media is replaced daily until assay.
Test compounds are diluted into “Stimulus Buffer” (MEM medium containing 0.1 mM non-essential amino acids, 1× penicillin/streptomycin, 10% FBS with 10 ng/ml IL-1β, 20 ng/ml IL-6 and 1 μM dexamethasone. Media is removed from the cells and is replaced with 200 μl of test dilution. Cells are returned to the incubator for three days at 37° C. CRP ELISA is then performed on supernatant from the cells, as described below.
Costar EIA/RIA plates are coated with rabbit anti-human CRP (DAKO) diluted 1:4000 in carbonate buffer (100 μl/well) for 45 minutes at 37° C. Plates are then washed 5× with CRP washing buffer (50 mM Tris-HCI, 0.3M NaCl, […], pH 8.0) using an automatic plate washer. Plates may be dried, covered and refrigerated until use. Supernatant (100 μl) is removed from each well of the test plates and added to the corresponding well of a precoated ELISA plate.
100 μl HRP-conjugated rabbit anti-human CRP (DAKO) diluted 1:500 (in CRP wash buffer) is added to each well, followed by incubation for 30 minutes at 37° C. […] Finally, 50 μl of 1M H2SO4 is added to each well and absorbance at 450 nm is immediately measured in a microtiter spectrophotometer.
CRP measured as above is normalized to cell count per well, using a cell viability assay, such as the Cell Tracker Green assay. […] Plates are immediately read using a Fluoroskan® flourometer with a 485 excitation/538 emission filter pair.

A further test concerns expression of ELAM. In words: Cell-ELAM (E-selectin) assay in LPS/IL-1β stimulated endothelial cells. To be noted: for ELAM production (in words): activated endothelial cells. It is filed as cell-based. The protocol:
Cell-ELAM Assay. Endothelial-Leukocyte Adhesion Molecule (ELAM), also known as E-selectin, is expressed on the surface of endothelial cells. In this assay, lipopolysaccharide (LPS) and IL-1β are used to stimulate the expression of ELAM; test agents are tested for their abilities to reduce this expression, in accordance with studies showing that reduction of leukocyte adhesion to endothelial cell surface is associated with decreased cellular damage (e.g., Takada, M., Et al., Transplantation 64: 1520–25, 1997; Steinberg, J. B., et al., J. Heart Lung Trans. 13:306–313, 1994).
Endothelial cells may be selected from any of a number of sources and cultured according to methods known in the art; including, for example, coronary artery endothelial cells, human brain microvascular endothelial cells (HBMEC; Hess, D. C., et al., Neurosci. Lett. 213(1): 37–40, 1996), or lung endothelial cells. Cells are conveniently cultured in 96-well plates. Cells are stimulated by adding a solution to each well containing 10 μg/ml LPS and 100 pg/ml IL-1β for 6 hours in the presence of test agent (specific concentrations and time may be adjusted depending on the cell type). Treatment buffer is removed and replaced with pre-warmed Fixing Solution® (100 μl/well) for 25 minutes at room temperature. Cells are then washed 3×, then incubated with Blocking Buffer (PBS+2% FBS) for 25 minutes at room temperature. Blocking Buffer containing Monoclonal E-Selectin Antibody (1:750, Sigma Catalog #S-9555) is added to each well. Plates are sealed and stored at 4° overnight. Plates are washed 4× with 160 μL Blocking Buffer per well. Second Antibody-HRP diluted 1:5000 in Blocking Buffer is then added (100 μL/well), and plates are incubated at room temperature (protected from light) for two hours. Plates are then washed 4× with Blocking Buffer before addition of 100 μL of ABTS Substrate solution at room temperature (Zymed, Catalog #00–2024). Wells are allowed to develop for 35 minutes, before measurement at 402 nm in a Fluoroskan® Reader with shake program for 10 seconds. Positive results are recorded as a decrease in ELAM concentration in tested wells, as compared to control wells.

`Cc1c(O)cc2c(c1C)OC(C)(CCCC(C)CCCC(C)CCCC(C)C)CC2` (stereo not shown) [gamma-tocopherol, 3,4-dihydro-2,7,8-trimethyl-2-(4,8,12-trimethyltridecyl)-2H-1-benzyopyran-6-ol]: in test [1], the “reduce inflammation secondary to arachidonic acid (ear punch weight difference)” value is given as “able to reduce inflammation”. Also, the “IL-6 levels in the edematous fluid (in words)” value in test [2] (10–100 mg/kg oral pretreatment over 3 days) is reported as “significantly reduced”. The “reduction in IL-6 present in edematous fluid” value in test [2] (3 days, 10–100 mg/kg/day oral pre-treatment, p<0.001) is on record as 42. Besides, the “reducing CRP production/levels (in words)” value in test [3] was “effective; also recorded: able to reduce”. In addition, the “ELAM production (in words)” value with expression of ELAM is on record as “decreased”.
In the case of `Cc1cc(O)cc2c1O[C@](C)(CCC[C@H](C)CCC[C@H](C)CCCC(C)C)CC2` (relative stereo) [delta-tocopherol, [2R-[2R*(4R*,8R*)]]-3,4-dihydro-2,8-dimethyl-2-(4,8,12-trimethyltridecyl)-2H-1-benzo-pyran-6-ol], the “reducing CRP production/levels (in words)” value in test [3] is “effective; also recorded: able to reduce”. Also, the “ELAM production (in words)” value with expression of ELAM is recorded as “decreased”. Moreover, the pEC50 in the test on expression of ELAM (endothelial cells, LPS and IL-1β, read-out: EC50 reduce the expression of ELAM) was 3.00 to 3.52 and 3.22.
For the molecule `Cc1cc(O)c(C)c2c1OC(C)(CCCC(C)CCCC(C)CCCC(C)C)CC2` (stereo not drawn) [beta-tocopherol, 3,4-dihydro-2,5,8-trimethyl-2-(4,8,12-trimethyltridecyl)-2H-1-benzopyran-6-ol], the “reducing CRP production/levels (in words)” value in test [3] was “effective; also recorded: able to reduce”. The “reducing CRP levels” value in test [3] (at about 3 to about 10 micromolar, Hep3B cells) was “about 50%”. The “ELAM production (in words)” value in the test on expression of ELAM is on record as “decreased”.
With `Cc1c(C)c2c(c(C)c1O)CC[C@@](C)(CCC[C@H](C)CCC[C@H](C)CCCC(C)C)O2` (relative stereo) [alpha-tocopherol, [2R-2R*(4R*,8R*)]-3,4-dihydro-2,5,7,8-tetramethyl-2-(4,8,12-trimethyltridecyl)-2H-1-benzopyran-6-ol, reference compound], the “ELAM production (in words)” value in the test with expression of ELAM was “not”. For the same molecule, in the test with expression of ELAM (at 1000 micromolar), the “activity in ELAM assay” value is reported as “not active”.
